{"source": "patent US7521182B2", "about": "“Selection system containing non-antibiotic resistance selection marker” (priority 2003, dated 2009)", "format_in_all_cases": "cell-based, E. coli", "key": {"[1]": {"tested_on": "ΔaraD strains", "assay": "L-arabinose sensitivity in M9 and yeast extract medium (FIG. 19)", "conditions": "0,2% and 2% arabinose, overnight at 37° C.", "protocol": "(§1) Additionally the L-arabinose sensitivity was tested in M9 and yeast extract medium with different glucose and arabinose concentrations (0.2% glucose, 0.2% arabinose, 2% arabinose). The cultures were incubated at 37° C. in a shaker incubator overnight. Then the OD600 was measured to quantitate the cell density."}, "[2]": {"tested_on": "strains with intact araD gene", "assay": "L-arabinose sensitivity in M9 and yeast extract medium (FIG. 19)", "conditions": "0,2% and 2% arabinose, overnight at 37° C.", "protocol": "as §1"}, "[3]": {"tested_on": "host deficient of the araD gene", "assay": "Amount of arabinose in the growth medium for selection", "from_the_text": "Any growth medium suitable for culturing E. coli cells can be used. For commercial production the growth medium will naturally be optimized in terms of the yield. Examples of suitable growth media are commercially available growth media, such as M9 and LB (available from several manufacturers, such as Fermentas, Lithuania). The amount of arabinose added in the growth medium is not critical but naturally arabinose should be present in an amount that is sufficient for the total culturing period. As low amount as 0.1% has been found sufficient for the selection. Typically arabinose is added to the medium in an amount of about 0.1% to about 2.0%, preferably in an amount of about 0.2% to about 1,0%, most preferably 0.2% to about 0.5%. However the effect of L-arabinose is observed at concentrations as low as 0.01% and L-arabinose can be added up to 5% in the growth medium. In a special embodiment, where L-arabinose is used both as a selecting agent and as a limited carbon source, 0.2% of L-arabinose is a suitable amount to be added into the growth medium."}, "[4]": {"tested_on": "JM109ΔaraD", "assay": "Testing of arabinose sensitivity (M9 medium with glycerol, overnight culture, OD600)", "conditions": "for JM109ΔaraD OD600: overnight at 37° C.", "protocol": "(§2) The arabinose sensitivity was tested on the produced AG1ΔaraD and JM109ΔaraD strains. One colony of AG1ΔaraD and one colony of JM109ΔaraD were each inoculated into 2 ml LB. The cultures were grown for 8 hours, diluted 1:100 into M9 medium containing 0.2% glycerol, 25 μg/ml kanamycin, 0.01% thiamine (0.05% proline for JM109ΔaraD) and different concentrations of L-arabinose were added in the growth medium. The cultures were grown overnight at 37° C. in shaker incubator and OD600 was measured (Table 1)."}, "[5]": {"tested_on": "AG1ΔaraD", "assay": "Testing of arabinose sensitivity (M9 medium with glycerol, overnight culture, OD600)", "conditions": "for AG1ΔaraD OD600: overnight at 37° C.", "protocol": "as §2"}, "[6]": {"tested_on": "DH5alphaT1 ΔaraDΔulaF ΔsgbE", "assay": "Testing of arabinose sensitivity (M9 medium with 0.5% yeast extract, OD600)", "protocol": "(§3) The arabinose sensitivity was tested on the E. coli DH5alphaT1 ΔaraDΔulaFΔsgbE and AG1ΔaraDΔulaFΔsgbE strains produced and compared to those of E. coli DH5alphaT1ΔaraD and AG1ΔaraD strains. One colony of each strain was inoculated into 2 ml of M9 medium containing 0.5% yeast extract, 25 μg/ml of kanamycin, 0.2% glucose only or 0.2% or 2% L-arabinose, respectively."}, "[7]": {"tested_on": "DH5alphaT1 ΔaraD", "assay": "Testing of arabinose sensitivity (M9 medium with 0.5% yeast extract, OD600)", "protocol": "as §3"}, "[8]": {"tested_on": "AG1ΔaraD ΔulaFΔsgbE", "assay": "Testing of arabinose sensitivity (M9 medium with 0.5% yeast extract, OD600)", "protocol": "as §3"}, "[9]": {"tested_on": "AG1 ΔaraD", "assay": "Testing of arabinose sensitivity (M9 medium with 0.5% yeast extract, OD600)", "protocol": "as §3"}, "[10]": {"tested_on": "AG1ΔaraD, DH5alphaT1 ΔaraD and JM109ΔaraD", "assay": "Arabinose sensitivity at lower concentrations of L-arabinose (FIG. 18)", "protocol": "as §2\nThe arabinose sensitivity was further tested on AG1ΔaraD, DH5alphaT1 ΔaraD and JM109ΔaraD as above but using lower concentrations of L-arabinose."}}}
{"smiles": "O=C[C@H](O)[C@@H](O)[C@@H](O)CO", "note": "[L-arabinose]", "values": [{"measurement": "effect on growth of the ΔaraD strains", "setting": "[1]", "value": "inhibited the growth"}, {"measurement": "effect on growth of strains with intact araD gene", "setting": "[2]", "value": "not inhibited"}, {"measurement": "amount of arabinose found sufficient for the selection", "setting": "[3]", "value": 0.1, "unit": "%"}, {"measurement": "concentration at which the effect of L-arabinose is observed", "setting": "[3]", "value": 0.01, "unit": "%"}, {"measurement": "JM109ΔaraD OD600", "setting": "[4]; 0.1% L-arabinose", "value": 0.03}, {"measurement": "JM109ΔaraD OD600", "setting": "[4]; 0.2% L-arabinose", "value": 0.026}, {"measurement": "JM109ΔaraD OD600", "setting": "[4]; 0.5% L-arabinose", "value": 0.020}, {"measurement": "JM109ΔaraD OD600", "setting": "[4]; 1% L-arabinose", "value": 0.025}, {"measurement": "JM109ΔaraD OD600", "setting": "[4]; 2% L-arabinose", "value": 0.021}, {"measurement": "amount of L-arabinose enough to inhibit the growth", "setting": "[4]; Table 1", "value": 0.1, "unit": "%"}, {"measurement": "AG1ΔaraD OD600", "setting": "[5]; 0.1% L-arabinose", "value": 0.03}, {"measurement": "AG1ΔaraD OD600", "setting": "[5]; 0.2% L-arabinose", "value": 0.030}, {"measurement": "AG1ΔaraD OD600", "setting": "[5]; 0.5% L-arabinose", "value": 0.030}, {"measurement": "AG1ΔaraD OD600", "setting": "[5]; 1% L-arabinose", "value": 0.024}, {"measurement": "AG1ΔaraD OD600", "setting": "[5]; 2% L-arabinose", "value": 0.017}, {"measurement": "amount of L-arabinose enough to inhibit the growth", "setting": "[5]; Table 1", "value": 0.1, "unit": "%"}, {"measurement": "OD600 Glc + 0.2% L-arabinose", "setting": "[6]; 0.2% L-arabinose", "value": 0.75}, {"measurement": "OD600 Glc + 2% L-arabinose", "setting": "[6]; 2% L-arabinose", "value": 0.28}, {"measurement": "OD600 Glc + 0.2% L-arabinose", "setting": "[7]; 0.2% L-arabinose", "value": 0.95}, {"measurement": "OD600 Glc + 2% L-arabinose", "setting": "[7]; 2% L-arabinose", "value": 0.35}, {"measurement": "OD600 Glc + 0.2% L-arabinose", "setting": "[8]; 0.2% L-arabinose", "value": 0.82}, {"measurement": "OD600 Glc + 2% L-arabinose", "setting": "[8]; 2% L-arabinose", "value": 0.35}, {"measurement": "OD600 Glc + 0.2% L-arabinose", "setting": "[9]; 0.2% L-arabinose", "value": 0.82}, {"measurement": "OD600 Glc + 2% L-arabinose", "setting": "[9]; 2% L-arabinose", "value": 0.26}, {"measurement": "amount of L-arabinose enough to inhibit the growth", "setting": "[10]", "value": 0.0005, "unit": "%"}]}
